This is an account of results in patent publication US20250268877A1 (BIOGEN MA INC., priority 2020, published 2025).

Molecules are shown by their SMILES. ≈ marks a conversion by molar mass, not a printed value. Like-named read-outs stand apart in the source and are kept apart here.

Series [1] has as its target MDR1 (Homo sapiens (Human), UniProt P08183). Nature of the series: MDR1-MDCK assay (apparent permeability, efflux ratio). Format: in vitro ADME. The following applies: human, MDCK-MDR1, 1 μM.
Series [2] is described as follows: Kpuu assay (in vivo brain-to-plasma partition, unbound). The following applies: intravenous infusion 4 to 24 h, unbound drug partition coefficient; for Kp: brain (unbound) versus plasma (unbound), read-out: Brain Kpu,u.
Protocol: For the brain-to-plasma partition coefficient (Kp) evaluation, a dosing solution was intravenously infused into animals at a constant flow rate for 4 to 24 h. Blood samples were serially collected during infusion, and CSF and brain samples were harvested at the end of infusion.
Tissue samples were typically homogenized in phosphate buffer saline (PBS) using a bead ruptor.
CSF samples were typically diluted with 8% BSA in PBS to prevent from non-specific binding. Artificial CSF (aCSF) is used as the surrogate matrix.
Calibration curves were prepared by spiking the analyte(s) into blank matrices, which were processed together with plasma, tissue homogenate and/or CSF samples by protein precipitation using a proper organic solvent (e.g. acetonitrile and methanol) containing generic analogue internal standards (e.g. verapamil, chrysin and glyburide). Matrix matching was used when analyzing multiple matrices in the same run. Samples above the upper limit of quantitation (ULOQ) needed to be diluted into the calibration range using either a pre-extraction or post-extraction dilution approach.
Processed samples were analyzed by LC-MS/MS using a proper method performing within the acceptable sensitivity, selectivity, precision and accuracy. For an analytical run to be accepted, over 75% of the calibration standards in the dual calibration curves needed to be within 20% of the nominal concentrations.
Brain concentrations were compared against plasma concentrations at the corresponding timepoint for the calculation of partition coefficient (Kp).
Unbound drug partition coefficient (Kpuu), defined as the ratio of unbound drug partition across the blood-brain barrier, was calculated using the equation below:
[formula] • Cb: measured total drug concentration in brain • Fub: unbound drug fraction in brain • Cp: measured total drug concentration in plasma • Fup: unbound drug fraction in plasma Compound- or study-specific PK analysis that deviates from the typical procedure might be used when necessary, which will be documented in a study specific protocol included in the data upload.
Mix thoroughly. • This spiked plasma solution is shown in FIG. 1. • 3) Prepare a chilled ‘crash’ solution of internal standard in a solvent solution. • Pipette 200 μL of 25 ng/mL solution of internal standard, CPDPX (8-Cyclopentyl-1,3-dipropylxanthine, Sigma-Aldrich, C101) in 1:1 acetonitrile/methanol solvent solution into a 1 mL 96-well plate. • Chill on ice or refrigerate at 4° C. • This solution becomes the ‘Crash’ plate in FIG. 1. • 4) From remaining spiked plasma, remove 50 μL (T=0 h) of each plasma sample and place into a crash plate which contains 200 μL. To matrix match, add 50 μL of blank buffer to the crashed sample (similar to PPB samples). […] Mix crash plate thoroughly. • From remaining spiked plasma, remove 50 μL (T=4 h) of each plasma sample and place into a crash plate. To matrix match, add 50 μL of blank buffer to the crashed sample (similar to the protein binding samples). • Centrifuge crash plate at 3900 rpm for 10 minutes at 4° C.
% Free=(PAR of buffer side/PAR of plasma side)*100 • PAR—Peak area ratio (PAR)
Fu=% Free/100 • Fu=fraction unbound
In series [3] the target is IRAK4 (Homo sapiens (Human), UniProt Q9NWZ3). Nature of the series: IRAK4 2-hour 1 mM ATP Biochemical Assay (MesoScale Detection format).
Protocol: The 2-hour 1 mM ATP Biochemical Assay employed a MesoScale Detection (MSD) format.
The activity was quenched with 11 μl of 70 mM EDTA, pH 8.
To detect the phosphorylated biotinylated peptide substrate, 30 μl of the quenched reaction mixture was added to equivalent wells of a 384 well streptavidin coated MesoScale plate (Meso Scale Discovery #L21SA-1). After a 1 hour incubation of the plate for 1 hour at room temperature with gentle mixing, the plate wells were washed 3 times with 50 mM Tris, pH 7.5, 150 mM NaCl, 0.02% Tween-20.
A 25 μl volume of 1:500 anti-P-Threonine Rabbit polyclonal Antibody plus 1:500 Goat-anti-Rabbit Sulfo Tag Antibody (Meso Scale Discovery R^32AB-1) in 50 mM Tris, pH 7.5, 150 mM NaCl, 0.02% Tween-20 plus 2% BSA was then added to each well. After a 1-hour incubation of the plate for 1 hour at room temperature with gentle mixing, the plate wells were washed, 3 times with 50 mM Tris, pH 7.5, 150 mM NaCl, 0.02% Tween-20.
Series [4] can be described thus: Kinetic solubility assay (CLND), potassium phosphate buffer pH 6.8. Format: physicochemical. To be noted: pH 6.8, 2% DMSO, 24 hours at ambient temperature; for solubility kinetic at 24 h / solubility at 24 h: potassium phosphate buffer, kinetic from dmso stock; for solubility kinetic at 24 h: aqueous buffer, comparator table; for solubility at 24 h: pH 6.8, aqueous buffer.
Description: • Inject filtrates into the nitrogen detector for quantification on Analiza's Automated Discovery Workstation (ADW). • Solubility results generated in μg/mL

Series [5] has as its target catalytical domain of human IRAK4 (a.a. 163-460) (Homo sapiens (Human), UniProt Q9NWZ3). As to the kind of experiment: IRAK4 SPR binding assay. To be noted: single-cycle, 1:1 interaction model.
Protocol: IRAK4 SPR. IRAK4 SPR was set up on Biacore T200 or S200 by using Biotin CAPture kit (Cytiva). In brief, purified IRAK4 in capture buffer (25 mM Hepes, 150 mM NaCl, 1 mM TCEP, pH7.4) was captured onto a CAP sensor surface via the interaction of biotin to streptavidin Typical capture level is between 1,000 RU to 2,000 RU, Compound binding kinetics to IRAK4 was examined with running buffer (25 mM Hepes, 150 mM NaCl, 1 mM TCEP, 2% DMSO, pH7.4). Serially diluted compounds were injected at 50 μl/min in single-cycle for 60-s association of each injection followed by 360-s dissociation at the end. The data was fitted to global 1:1 interaction model.
Series [6] addresses Human MDR1 transfected MDCK cells (Homo sapiens (Human), UniProt P08183). As to the kind of experiment: MDR1-MDCK assay (apparent permeability, efflux ratio). Format: in vitro ADME. To be noted: 1 μM, 120 minutes.
The mark [7] stands for this setting: comparator table, read-out: MDR1-MDCK Efflux Ratio.
[8] abbreviates: read-out: MDR1-MDCK_Efflux Ratio.
[9] abbreviates: 100 pM IRAK4, read-out: IRAK4 IC50.

Sequence of catalytical domain of human IRAK4 (a.a. 163-460) (Q9NWZ3 163-460): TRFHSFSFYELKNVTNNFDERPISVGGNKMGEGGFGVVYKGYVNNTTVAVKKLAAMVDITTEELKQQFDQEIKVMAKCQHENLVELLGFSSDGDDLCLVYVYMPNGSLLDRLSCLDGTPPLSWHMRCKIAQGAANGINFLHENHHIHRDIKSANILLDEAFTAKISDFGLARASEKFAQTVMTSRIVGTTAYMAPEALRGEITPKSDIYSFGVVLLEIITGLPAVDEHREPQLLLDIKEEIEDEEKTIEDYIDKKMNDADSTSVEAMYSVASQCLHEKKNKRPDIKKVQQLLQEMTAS
Sequence of IRAK4 (Q9NWZ3 whole entry): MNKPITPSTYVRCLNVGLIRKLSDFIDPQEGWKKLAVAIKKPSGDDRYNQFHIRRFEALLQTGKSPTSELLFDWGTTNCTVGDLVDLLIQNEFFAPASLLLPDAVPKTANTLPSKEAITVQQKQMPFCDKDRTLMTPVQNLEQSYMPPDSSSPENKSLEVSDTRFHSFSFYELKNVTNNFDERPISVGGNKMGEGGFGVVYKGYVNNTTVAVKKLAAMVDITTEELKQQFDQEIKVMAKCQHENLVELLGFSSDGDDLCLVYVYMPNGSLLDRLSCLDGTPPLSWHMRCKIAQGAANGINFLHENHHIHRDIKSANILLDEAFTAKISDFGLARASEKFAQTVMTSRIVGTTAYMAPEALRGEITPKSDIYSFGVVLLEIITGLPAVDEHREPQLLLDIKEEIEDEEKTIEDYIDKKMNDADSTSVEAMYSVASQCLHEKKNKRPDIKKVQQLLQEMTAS
Sequence of MDR1 (P08183 whole entry, the tested form may be a part): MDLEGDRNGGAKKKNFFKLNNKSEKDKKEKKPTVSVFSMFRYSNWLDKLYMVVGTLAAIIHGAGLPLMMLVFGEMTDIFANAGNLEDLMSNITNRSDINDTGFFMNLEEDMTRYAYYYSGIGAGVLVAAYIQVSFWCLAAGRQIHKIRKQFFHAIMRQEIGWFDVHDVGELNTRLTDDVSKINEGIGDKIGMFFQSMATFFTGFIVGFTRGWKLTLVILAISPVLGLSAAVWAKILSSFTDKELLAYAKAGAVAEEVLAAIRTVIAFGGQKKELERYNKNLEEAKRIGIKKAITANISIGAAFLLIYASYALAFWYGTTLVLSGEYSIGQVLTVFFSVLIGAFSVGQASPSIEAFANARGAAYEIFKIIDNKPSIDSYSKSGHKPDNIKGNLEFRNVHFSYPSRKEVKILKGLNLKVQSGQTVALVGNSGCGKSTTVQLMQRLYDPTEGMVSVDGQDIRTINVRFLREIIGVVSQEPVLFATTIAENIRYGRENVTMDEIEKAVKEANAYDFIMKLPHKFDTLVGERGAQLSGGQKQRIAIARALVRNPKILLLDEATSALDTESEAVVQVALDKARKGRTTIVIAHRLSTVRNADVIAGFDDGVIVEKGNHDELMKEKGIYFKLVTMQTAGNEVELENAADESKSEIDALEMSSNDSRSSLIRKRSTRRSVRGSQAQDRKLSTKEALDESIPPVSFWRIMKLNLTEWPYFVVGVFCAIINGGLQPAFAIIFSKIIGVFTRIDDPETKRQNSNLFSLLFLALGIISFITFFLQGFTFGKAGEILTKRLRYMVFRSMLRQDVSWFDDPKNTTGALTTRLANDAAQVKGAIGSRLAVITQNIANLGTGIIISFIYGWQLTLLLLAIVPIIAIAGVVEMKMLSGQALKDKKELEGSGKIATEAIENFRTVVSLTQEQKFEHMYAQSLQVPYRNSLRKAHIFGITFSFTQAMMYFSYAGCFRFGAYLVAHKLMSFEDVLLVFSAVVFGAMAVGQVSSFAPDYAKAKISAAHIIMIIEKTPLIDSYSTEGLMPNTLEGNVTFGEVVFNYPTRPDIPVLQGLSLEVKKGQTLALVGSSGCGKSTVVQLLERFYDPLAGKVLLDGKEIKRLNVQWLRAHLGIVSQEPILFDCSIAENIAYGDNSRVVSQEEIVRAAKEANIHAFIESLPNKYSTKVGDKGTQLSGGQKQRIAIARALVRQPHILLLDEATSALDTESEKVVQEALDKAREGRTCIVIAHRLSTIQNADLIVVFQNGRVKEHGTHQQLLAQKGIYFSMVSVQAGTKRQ
Sequence of Human MDR1 transfected MDCK cells (P08183 whole entry): as the sequence (P08183 whole entry, the tested form may be a part) above

For `CC(C)Oc1nc2nn([C@]34CC[C@](C)(C3)OC4)cc2cc1C(=O)Nc1cccn(C)c1=O` (single isomer, unassigned) [Comparator 1C, reference compound], in series [1] (setting [7]), the efflux ratio at 120 min, 1 μM was 1.2. The Kp in series [2] (comparator table) was 1.3. Moreover, in series [3] (100 pM IRAK4, comparator table, read-out: IRAK4 Biochemical IC50), the IC50 came to 0.4 nM. The kinetic solubility at 24 h in series [4] was found to be 0.0443 mg/mL (≈ 101 µM). In addition, the “IRAK4 SPR binding Half Life” value in series [5] (comparator table) was determined as 27.1 min.
Regarding `C[C@]12CC[C@](n3cc4cc(C(=O)Nc5cccn(C6CC6)c5=O)c(OC5CCC5)cc4n3)(CO1)C2` (single isomer, unassigned) [Example 41], in series [1] (setting [8]), the efflux ratio at 120 min, 1 μM is 1.71. Also, the “Brain Kpu,u” value in series [2] came to 0.9. For the same compound, in series [3] (setting [9]), the IC50 came out at 0.2 nM. In addition, the solubility at 24 h in series [4] stood at 0.0197 mg/mL (≈ 41.5 µM). For the same compound, the “IRAK4 SPR binding Half Life” value in series [5] came to 31.6 min.
As to `CC(C)Oc1nc2nn([C@@]34CC[C@@](C)(C3)OC4)cc2cc1C(=O)Nc1cccn(C2CC2)c1=O` (single isomer, unassigned) [Example 47], the efflux ratio at 120 min, 1 μM in series [1] (setting [8]) is 2.04. Also, in series [2], the Kp amounted to 1.6. Also, in series [3] (setting [9]), the IC50 came to 0.2 nM. Moreover, the solubility at 24 h in series [4] worked out at 0.00109 mg/mL (≈ 2.35 µM). Besides, the “IRAK4 SPR binding Half Life” value in series [5] is 54 min.
Take `CC(C)Oc1cc2nn([C@]34CC[C@](C)(C3)OC4)cc2cc1C(=O)Nc1cccn([C@H]2C[C@H]2F)c1=O` (single isomer, unassigned) [Example 51]: the efflux ratio at 120 min, 1 μM in series [1] (setting [8]) is 3.47. Further, in series [2], the Kp worked out at 0.4. The IC50 in series [3] (setting [9]) turned out to be 0.1 nM. The same compound yielded a solubility at 24 h in series [4] of 0.0423 mg/mL (≈ 88 µM). Further, the “IRAK4 SPR binding Half Life” value in series [5] is 139 min.
`C[C@@H]1C[C@@H]1n1cccc(NC(=O)c2cc3cn([C@@]45CC[C@@H](C4)OC5)nc3nc2OC2CC2)c1=O` (single isomer, unassigned) [Example 94]: the “MDR1-MDCK_Efflux Ratio” value in series [6] is reported as 2.73. In addition, the IC50 in series [3] (setting [9]) came out at 0.6 nM. The “Solubility pH 6.8” value in series [4] stood at 14.7 ug/mL.
Consider `CC(C)Oc1cc2nn(C34COC(C)(C3)C4)cc2cc1C(=O)Nc1cccn(C)c1=O` [Comparator 1A, 6-isopropoxy-N-(1-methyl-2-oxo-1,2-dihydropyridin-3-yl)-2-(1-methyl-2-oxabicyclo[2.1.1]hexan-4-yl)-2H-indazole-5-carboxamide, reference compound], for which the efflux ratio at 120 min, 1 μM in series [1] (setting [7]) came to 1.2. In series [2] (comparator table), the Kp was determined as 1. The compound further yielded a solubility (kinetic) at 24 h in series [4] of 0.06 mg/mL (≈ 142 µM). In series [5] (comparator table), the “IRAK4 SPR binding Half Life” value is 9.0 min.
Regarding `CC(C)Oc1cc2nn([C@@]34CC[C@@](C)(C3)OC4)cc2cc1C(=O)Nc1cccn(C2CC2)c1=O` [Example 2, N-(1-cyclopropyl-2-oxo-1,2-dihydropyridin-3-yl)-6-isopropoxy-2-((1S,4S)-1-methyl-2-oxabicyclo[2.2.1]heptan-4-yl)-2H-indazole-5-carboxamide], the efflux ratio at 120 min, 1 μM in series [1] (setting [8]) was 1.58. For the same compound, in series [2], the Kp worked out at 0.9. Moreover, in series [3] (setting [9]), the IC50 came to 0.4 nM. Also, the solubility at 24 h in series [4] was 0.0517 mg/mL (≈ 112 µM). Moreover, in series [5], the “IRAK4 SPR binding Half Life” value is 52.85 min.
With `CC(C)Oc1nc2nn(C34COC(C)(C3)C4)cc2cc1C(=O)Nc1cccn(C2CC2)c1=O` [Example 9, N-(1-cyclopropyl-2-oxo-1,2-dihydropyridin-3-yl)-6-isopropoxy-2-(1-methyl-2-oxabicyclo[2.1.1]hexan-4-yl)-2H-pyrazolo[3,4-b]pyridine-5-carboxamide], the efflux ratio at 120 min, 1 μM in series [1] (setting [8]) was found to be 3.26. For the same compound, the Kp in series [2] amounted to 0.8. In series [3] (setting [9]), the IC50 is 0.3 nM. In series [4], this compound gave a solubility at 24 h of 0.0187 mg/mL (≈ 41.6 µM). For the same compound, the “IRAK4 SPR binding Half Life” value in series [5] was found to be 80.4 min.
`CC(C)Oc1nc2nn(C34COC(CF)(C3)C4)cc2cc1C(=O)Nc1cccn(C2CC2)c1=O` [Example 10, N-(1-cyclopropyl-2-oxo-1,2-dihydropyridin-3-yl)-2-(1-(fluoromethyl)-2-oxabicyclo[2.1.1]hexan-4-yl)-6-isopropoxy-2H-pyrazolo[3,4-b]pyridine-5-carboxamide]: the efflux ratio at 120 min, 1 μM in series [1] (setting [8]) stood at 3.4. In addition, the Kp in series [2] was 0.6. Also, the half-maximal inhibitory concentration (IC50) in series [3] (setting [9]) turned out to be 0.2 nM. The compound further came in with a solubility at 24 h in series [4] of 0.0227 mg/mL (≈ 48.5 µM). Also, the “IRAK4 SPR binding Half Life” value in series [5] was 73.4 min.
Regarding `CC(C)Oc1cc2nn([C@@]34CC[C@@](C)(C3)OC4)cc2cc1C(=O)Nc1cccn([C@H]2C[C@H]2F)c1=O` [Example 50, N-(1-((1S,2R)-2-fluorocyclopropyl)-2-oxo-1,2-dihydropyridin-3-yl)-6-isopropoxy-2-((1S,4S)-1-methyl-2-oxabicyclo[2.2.1]heptan-4-yl)-2H-indazole-5-carboxamide], the efflux ratio at 120 min, 1 μM in series [1] (setting [8]) is 2.75. The Kp in series [2] came to 0.4. Besides, the half-inhibitory concentration (IC50) in series [3] (setting [9]) was 0.1 nM. Moreover, the solubility at 24 h in series [4] amounted to 0.0405 mg/mL (≈ 84.3 µM). Moreover, in series [5], the “IRAK4 SPR binding Half Life” value is 138 min.
Regarding `CC(C)Oc1cc2nn(C34COC(CF)(C3)C4)cc2cc1C(=O)Nc1cccn([C@H]2C[C@H]2F)c1=O` [Example 52, N-(1-((1S,2R)-2-fluorocyclopropyl)-2-oxo-1,2-dihydropyridin-3-yl)-2-(1-(fluoromethyl)-2-oxabicyclo[2.1.1]hexan-4-yl)-6-isopropoxy-2H-indazole-5-carboxamide], in series [1] (setting [8]), the efflux ratio at 120 min, 1 μM is 5.16. The Kp in series [2] was 0.3. In addition, the IC50 in series [3] (setting [9]) is 0.2 nM. Also, the solubility at 24 h in series [4] was 0.0384 mg/mL (≈ 79.3 µM). Moreover, the “IRAK4 SPR binding Half Life” value in series [5] is given as 70.7 min.
Consider `CC(C)Oc1cc2nn(C34COC(CF)(C3)C4)cc2cc1C(=O)Nc1cccn([C@@H]2C[C@@H]2C)c1=O` [Example 81, 2-(1-(fluoromethyl)-2-oxabicyclo[2.1.1]hexan-4-yl)-6-isopropoxy-N-(1-((1R,2S)-2-methylcyclopropyl)-2-oxo-1,2-dihydropyridin-3-yl)-2H-indazole-5-carboxamide], for which the “MDR1-MDCK_Efflux Ratio” value in series [6] amounted to 1.95. For the same compound, the IC50 in series [3] (setting [9]) came to 37 nM.
Turning to `CC12CC(n3cc4cc(C(=O)Nc5cccn([C@H]6C[C@H]6F)c5=O)c(OC5CC5)nc4n3)(CO1)C2` [Example 85, 6-cyclopropoxy-N-(1-((1S,2R)-2-fluorocyclopropyl)-2-oxo-1,2-dihydropyridin-3-yl)-2-(1-methyl-2-oxabicyclo[2.1.1]hexan-4-yl)-2H-pyrazolo[3,4-b]pyridine-5-carboxamide], the efflux ratio at 120 min, 1 μM in series [1] (setting [8]) was found to be 7.21. The Kp in series [2] was 0.3. Besides, the IC50 in series [3] (setting [9]) is 0.2 nM. In series [4], this compound displayed a solubility at 24 h of 0.0201 mg/mL (≈ 43.2 µM). Moreover, the “IRAK4 SPR binding Half Life” value in series [5] was 48 min.
For the compound `C[C@@H]1C[C@@H]1n1cccc(NC(=O)c2cc3cn(C45COC(CF)(C4)C5)nc3nc2OC2CC2)c1=O` [Example 92], the “MDR1-MDCK_Efflux Ratio” value in series [6] stood at 5.77. Besides, the IC50 in series [3] (setting [9]) was determined as 1.7 nM. Besides, in series [4], the “Solubility pH 6.8” value is reported as 12.8 ug/mL.

One may read the IC50 as the point on the concentration scale where inhibition reaches its midpoint. By kinetic solubility is commonly meant the concentration staying in solution when a stock, usually in DMSO, is diluted into the medium. As a reminder, the solubility is the concentration that dissolves in the medium under given conditions.
